pIC50: −log10 of the molar value. Several values for one entry are separate records, joined by “and”; a condition that tells them apart may be missing. Equal values may be shown once.
System: 379773-124-R-J2-PDC spheroid viability
Assay: Anticancer human tumor 379773-124-R-J2-PDC patient-derived endometrial carcinoma cell line growth inhibition [POLQ]
Details: spheroids with HUVEC and MSC; for viability, T/C: stronger effect = lower value
Method: Multicellular complex tumor spheroid response to Polymerase (POL) inhibitors (novobiocin, ART-558, RP6685) in combination with a variety of drugs and investigational agents in selected tumor cell lines
The POL inhibitors (novobiocin, ART-558, and RP6685) were evaluated both individually and in combination with standard of care and investigational anticancer small molecules within a complex spheroid model of solid tumors. . Complex spheroids include a stromal component modeled by human endothelial cells (HUVEC) and fibroblasts modeled by human mesenchymal stem cells (MSCs). The concentration ranges selected for each drug and investigational agent were based upon clinically achievable concentrations if the clinical Cmax of the agent was known.
Compounds. The drugs and investigational agents: novobiocin (NSC847541), ART-558 (NSC835418), RP-6685 (NSC848927), peposertib (NSC802822), ceralasertib (NSC780249), elimusertib (NSC800525), camonsertib (NSC841442), AZD-1390 (NSC803789), olaparib (NSC753686), talazoparib (NSC767125), rucaparib (NSC756644), sotorasib (NSC818433), MRTX-1133 (NSC836407), SN-38 (NSC673596), topotecan (NSC609699), epotoside (NSC141540), doxorubicin (NSC123127), gemcitabine (NSC613327), 5-fluorouracil (NSC19893), paclitaxel (NSC125973), vemurafenib (NSC761431), MSA-2 (NSC828583), SN-011 (NSC837082), adavosertib (NSC754352), prexasertib (NSC758257), carboplatin (NSC241240) and oxaliplatin (NSC266046), were obtained from the National Cancer Institute (NCI) Developmental Therapeutics Program Chemical Repository (21). The FDA-approved anticancer drug set is available from the Developmental Therapeutics Program at https://dtp.cancer.gov/organization/dscb/obtaining/. […] The stock solutions were prepared in dimethyl sulfoxide (DMSO, Sigma-Aldrich, St. Louis, MO, cat. D2650), except for the platinum compounds which were prepared in saline (Quality Biological, Gaithersburg, MD, cat. 114-055-101), at 800-fold the tested concentration and stored at -70 degrees C prior to their use. All drugs and investigational agents were tested over a range starting from a high concentration at or near the clinical Cmax and decreasing in half-log increments. If the clinical Cmax for an agent had not been determined, the highest concentration tested was 10 microM, except for SN-38, which was tested at a high concentration of 1 microM.
Cell Culture. All cells were maintained in an incubator at 37 degrees C and 5% CO2 with 95% humidity. The PDC lines were cultured according to standard operating procedures established by the NCI PDMR (https://pdmr.cancer.gov). Table 3 of the manuscript, lists the cell lines along with the number of the three cell types plated to form the mct-spheroids and media for tumor cell growth. After thawing, all PDC lines, except 997537-175-T-J1-PDC and 415267-285-R-J2-PDC, were cultured in Matrigel-coated flasks prepared with a working solution of 1X Ham's F-12 nutrient mix, without supplementation (Thermo Fisher Scientific, cat. 11765054), 100 U/mL penicillin-streptomycin (Thermo Fisher Scientific, cat. 15140122), and 2.5% Matrigel (Corning Inc., Corning, NY, cat. 354248) for the first three passages. The two PDC lines 997537-175-T-J1-PDC and 415267-285-R-J2-PDC were cultured on uncoated flasks. The 857933-349-R-J2-PDC line was cultured in 6C/Colon 1B media containing advanced DMEM/F-12 (Thermo Fisher Scientific, cat. 12634028), 10 mM HEPES (Thermo Fisher Scientific, cat. 15630080), 1X GlutaMAX supplement (Thermo Fisher Scientific, cat. 35050061), 0.1 mg/mL primocin (InvivoGen, San Diego, CA, cat. ant-pm-2), 10% defined fetal bovine serum, heat inactivated (HyClone Laboratories Inc., Logan, UT, cat. SH30070.03HI), 50% L-WRN conditioned media (ATCC, cat. CRL-3276), 1.25 mM N-Acetyl-L-cysteine (Sigma-Aldrich, cat. A9165), 10 mM nicotinamide (Sigma-Aldrich, cat. N0636), 1X B-27 supplement (Thermo Fisher Scientific, cat. 17504044), 1X N-2 supplement (Thermo Fisher Scientific, cat. […]

[1] = curve of first compound, second compound 0.0316 µM
[2] = curve of first compound, second compound 0.1 µM
[3] = curve of first compound, second compound 0.316 µM
[4] = curve of first compound, second compound 1 µM
[5] = curve of first compound, second compound 3.16 µM
[6] = curve of first compound, second compound 10 µM
[7] = second compound 0.0316 µM, first compound 0.0316 µM
[8] = second compound 0.0316 µM, first compound 0.1 µM
[9] = second compound 0.0316 µM, first compound 0.316 µM
[10] = second compound 0.0316 µM, first compound 1 µM
[11] = second compound 0.0316 µM, first compound 3.16 µM
[12] = second compound 0.0316 µM, first compound 10 µM
[13] = second compound 0.1 µM, first compound 0.0316 µM
[14] = second compound 0.1 µM, first compound 0.1 µM
[15] = second compound 0.1 µM, first compound 0.316 µM
[16] = second compound 0.1 µM, first compound 1 µM
[17] = second compound 0.1 µM, first compound 3.16 µM
[18] = second compound 0.1 µM, first compound 10 µM
[19] = second compound 0.316 µM, first compound 0.0316 µM
[20] = second compound 0.316 µM, first compound 0.1 µM
[21] = second compound 0.316 µM, first compound 0.316 µM
[22] = second compound 0.316 µM, first compound 1 µM
[23] = second compound 0.316 µM, first compound 3.16 µM
[24] = second compound 0.316 µM, first compound 10 µM
[25] = second compound 1 µM, first compound 0.0316 µM
[26] = second compound 1 µM, first compound 0.1 µM
[27] = second compound 1 µM, first compound 0.316 µM
[28] = second compound 1 µM, first compound 1 µM
[29] = second compound 1 µM, first compound 3.16 µM
[30] = second compound 1 µM, first compound 10 µM
[31] = second compound 3.16 µM, first compound 0.0316 µM
[32] = second compound 3.16 µM, first compound 0.1 µM
[33] = second compound 3.16 µM, first compound 0.316 µM
[34] = second compound 3.16 µM, first compound 1 µM
[35] = second compound 3.16 µM, first compound 3.16 µM
[36] = second compound 3.16 µM, first compound 10 µM
[37] = second compound 10 µM, first compound 0.0316 µM
[38] = second compound 10 µM, first compound 0.1 µM
[39] = second compound 10 µM, first compound 0.316 µM
[40] = second compound 10 µM, first compound 1 µM
[41] = second compound 10 µM, first compound 3.16 µM
[42] = second compound 10 µM, first compound 10 µM
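Note: spheroids exposed to drugs for seven days before readout.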
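Throughout, for viability, T/C: percent viability relative to DMSO vehicle control taken as 100%.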

## COc1cccc2c1C(=O)c1c(O)c3c(c(O)c1C2=O)CC(O)(C(=O)CO)CC3OC1CC(N)C(O)C(C)O1 (stereo not given) + Nc1ccc(C#CCN(C(=O)Cc2ncc(C(F)(F)F)cc2C(F)(F)F)c2ccc(F)cc2)nn1
[1]
  pIC50: 7.11
[2]
  pIC50: 7.12
[3]
  pIC50: 7.14
[4]
  pIC50: 7.18
[5]
  pIC50: 7.13
[6]
  pIC50: 7.26
[7]
  viability, T/C: 84.7%
[8]
  viability, T/C: 41.7%
[9]
  viability, T/C: 11.1%
[10]
  viability, T/C: 12.6%
[11]
  viability, T/C: 1.86%
[12]
  viability, T/C: 0.23%
[13]
  viability, T/C: 87.7%
[14]
  viability, T/C: 37.4%
[15]
  viability, T/C: 15.2%
[16]
  viability, T/C: 11.9%
[17]
  viability, T/C: 2.13%
[18]
  viability, T/C: 0.18%
[19]
  viability, T/C: 90.3%
[20]
  viability, T/C: 33.3%
[21]
  viability, T/C: 11.8%
[22]
  viability, T/C: 10.2%
[23]
  viability, T/C: 1.88%
[24]
  viability, T/C: 0.18%
[25]
  viability, T/C: 89.8%
[26]
  viability, T/C: 26%
[27]
  viability, T/C: 9.42%
[28]
  viability, T/C: 10.8%
[29]
  viability, T/C: 1.71%
[30]
  viability, T/C: 0.23%
[31]
  viability, T/C: 85.1%
[32]
  viability, T/C: 37.7%
[33]
  viability, T/C: 11.3%
[34]
  viability, T/C: 10.1%
[35]
  viability, T/C: 3.23%
[36]
  viability, T/C: 1.06%
[37]
  viability, T/C: 71.2%
[38]
  viability, T/C: 26.8%
[39]
  viability, T/C: 10.9%
[40]
  viability, T/C: 9.24%
[41]
  viability, T/C: 1.29%
[42]
  viability, T/C: 0.25%

## COc1cccc(OCCCN)c1-c1cc(Nc2cnc(C#N)cn2)n[nH]1
Compound 0.00316 µM
  viability, T/C: 71.1% and 84.4% and 94.5%
Compound 0.01 µM
  viability, T/C: 4.45% and 22.9% and 22%
Compound 0.0316 µM
  viability, T/C: 2.75% and 2.85% and 3%
Compound 0.1 µM
  viability, T/C: 2.5% and 2.23% and 2.01%
Compound 0.316 µM
  viability, T/C: 2.05% and 2.52% and 2.6%
Compound 1 µM
  viability, T/C: 1.38% and 1.84% and 2.29%
Curve of compound
  pIC50: 8.34 and 8.22 and 8.19

## COc1cc(C2c3cc4c(cc3C(OC3OC5COC(C)OC5C(O)C3O)C3COC(=O)C23)OCO4)cc(OC)c1O (stereo not given)
Compound 0.0316 µM
  viability, T/C: 84.9% and 99% and 87%
Compound 0.1 µM
  viability, T/C: 86.8% and 96.4% and 75.6%
Compound 0.316 µM
  viability, T/C: 89.5% and 90% and 75.2%
Compound 1 µM
  viability, T/C: 64.8% and 72.1% and 65%
Compound 3.16 µM
  viability, T/C: 14.7% and 19.1% and 14.3%
Compound 10 µM
  viability, T/C: 10.1% (2×) and 14.7%
Curve of compound
  pIC50: 5.85 and 5.79

## C=CCn1c(=O)c2cnc(Nc3ccc(N4CCN(C)CC4)cc3)nc2n1-c1cccc(C(C)(C)O)n1
Compound 0.00316 µM
  viability, T/C: 95.2% and 88.4% and 90.7%
Compound 0.01 µM
  viability, T/C: 83.8% and 82.6% and 88.3%
Compound 0.0316 µM
  viability, T/C: 86.5% and 84.1% and 94.8%
Compound 0.1 µM
  viability, T/C: 91.2% and 98.4% and 89.9%
Compound 0.316 µM
  viability, T/C: 67.7% and 74.7% and 79.6%
Compound 1 µM
  viability, T/C: 2.93% and 2.98% and 6.11%
Curve of compound
  pIC50: 6.36 and 6.33 and 6.30

## CC1COCCN1c1cc(C2(O)CC3CCC(C2)O3)c2cnn(-c3ccn[nH]3)c2n1 (stereo not given) + COC1C(OC(N)=O)C(O)C(Oc2ccc3c(O)c(NC(=O)c4ccc(O)c(CC=C(C)C)c4)c(=O)oc3c2C)OC1(C)C
[1]
  pIC50: 7.18
[2]
  pIC50: 7.00
[3]
  pIC50: 6.99
[4]
  pIC50: 7.12
[5]
  pIC50: 7.06
[6]
  pIC50: 7.12
[7]
  viability, T/C: 74.8%
[8]
  viability, T/C: 36.6%
[9]
  viability, T/C: 14.5%
[10]
  viability, T/C: 10.8%
[11]
  viability, T/C: 7.52%
[12]
  viability, T/C: 2.19%
[13]
  viability, T/C: 82.9%
[14]
  viability, T/C: 49.9%
[15]
  viability, T/C: 11.2%
[16]
  viability, T/C: 8.68%
[17]
  viability, T/C: 7.3%
[18]
  viability, T/C: 2.55%
[19]
  viability, T/C: 90%
[20]
  viability, T/C: 51.2%
[21]
  viability, T/C: 12.9%
[22]
  viability, T/C: 10.9%
[23]
  viability, T/C: 6.18%
[24]
  viability, T/C: 2.42%
[25]
  viability, T/C: 77.8%
[26]
  viability, T/C: 41.4%
[27]
  viability, T/C: 11.6%
[28]
  viability, T/C: 10.2%
[29]
  viability, T/C: 6.65%
[30]
  viability, T/C: 1.98%
[31]
  viability, T/C: 71.9%
[32]
  viability, T/C: 47%
[33]
  viability, T/C: 11.7%
[34]
  viability, T/C: 9.21%
[35]
  viability, T/C: 7.19%
[36]
  viability, T/C: 2.23%
[37]
  viability, T/C: 75.4%
[38]
  viability, T/C: 42.4%
[39]
  viability, T/C: 10.3%
[40]
  viability, T/C: 9.86%
[41]
  viability, T/C: 7.38%
[42]
  viability, T/C: 2.73%

Source: PubChem BioAssay AID1963848 (Molecular Pharmacology Branch, DTP, NCI, 2024)
